Experimental data taken from patent EP0366451A2, “The use of oxidized polyamines, especially NN'-Bis-(3-propionaldehyde)-1-4-diaminobutane (sperminedialdehyde) as immunosuppressive agents” (ORTHO PHARMACEUTICAL CORPORATION, priority 1988, dated 1990).

What was measured:
ALDH = ALDH assay in the mitochondrial fraction of L1210/CPA or mouse liver; type: biochemical; conditions: SDA up to 2.5 mM
Description: (§1) Cultured murine leukemic cells and livers (excised from mice immediately after cervical dislocation) were homogenized in 3 volumes of ice-cold 1.15% KCl and 1 mM EDTA. The homogenate was centrifuged at 100,000 g for 45 min and the resulting supernatant was used to measure cytosolic ALDH activity. For particulate ALDH assay, the pellet (and homogenate for total ALDH) was resuspended in homogenizing buffer and treated with 0.25% Triton X-100 for 30 min at 4°C. The solubilized preparations were centrifuged at 48,000 g for 30 min and the supernatants were drawn off for ALDH determinations.
(§2) ALDH activity was measured by monitoring the reduction of NAD or NADp for 5-6 min at […] at 37°C in DU70 spectrophotometer (Beckman). The assay mixture contained 50 mM potassium phosphate buffer, pH 7.4, 2.0 mM NAD (or NADP) and 1.0 mM EDTA. The reaction was started by adding the substrate (SDA or other aldehyde) to the prewarmed (5 min at 37°C) assay mixture containing enzyme preparation. Pyrazole (0.1 mM) was added particularly for liver enzyme, to inhibit alcohol dehydrogenase. The apparent Km and maximum velocity (Vmax) values were calculated using a Lineweaver-Burk plot based on the estimation of the slope by regression analysis. Enzyme activity was expressed as mU (nmoles/min) per mg of protein. Protein contents were determined by the Bradford method, using bovine serum albumin as the standard.

C57BL mice = experiment: In vivo generation of cytotoxic T cells in mice; conditions: Figure 5
Description: C57BL mice were injected i.p. daily with different doses of spermine dialdehyde. On day 2, they also received 107 DBA spleen cells. Seven days later, animals were sacrificed and percentage of cytotoxic T cells (measured by % specific lipes generated in the spleen was calculated and plotted as a function of concentration of spermine dialdehyde.
In vivo generation of cytotoxic T cells was performed according to the method described by Faanes et al., Clin. Esp. Immunol., Vol. 27 pp. 502-506 (1977). C57BL mice were arranged into groups of 10 and injected IP with different doses of spermine dialdehyde or control preparation. Two days after first injection, they received i.p. injection of 10⁷ DBA spleen cells which were prepared as described previously. Ten days after cell injection, C57 mice were sacrificed by cervical dislocation and cytotoxic T cells generated in the spleen were quantified by measuring the ability of those cells to lyse 51Cr labelled PB15 target cells (a mastocytoma, cells of DBA origin or Con A stimulated DBA spleen blasts). P815 cells or blasts were suspended at 10⁷ cells/ml and incubated with 200 MCi of 51Cr for 1 hour at 37°C. […] After incubation, 100 Ml of supernatant was removed and counted in the gamma counter. The percentage of cytotoxic T cells was calculated: [formula] […]

(Lewis x BN) F1 rats = experiment: Graft vs. host reaction in rat (popliteal lymph node study); type: in vivo
Description: (LewXBN) rats were injected i.v. daily for 8 days with different doses of spermine dialdehyde. On day 2, BN rat spleen cells were injected subcutaneously into the left foot pads of the (LewxBN)F1 rats. These rats were sacrificed in 7 days and weights of both left and right popliteal lymph nodes were removed. The difference in weight is plotted as a function of spermine dialdehyde concentrations used.
Graft vs. host reaction in rats was measured by popliteal lymph node enlargement induced by reinjection of parental spleen cells into F1 recipients. (Lewis x BN) F1 rats were divided into groups of 10 and given daily IV injections of different doses of the test compound (spermine dialdehyde) or control preparation. Two days after the first injection, they received 9 x 10⁶ spleen cells from a parental Lewis strain (0.3 ml of a […] cell/ml preparation was injected under the skin of the ventral surface of each of the recipient's right hind foot). Injection of test compound and control article continued for 6 more days. On the seventh day, rats were sacrificed by CO₂ treatment. Both left and right politeal lymph nodes were removed and cleaned of any adhering tissue. The extent of enlargement was measured by weighing both left and right lymph nodes and differences between the two were calculated.
Graft vs. host reaction was generated in the form of popliteal lymph node in F1 recipients by subcutaneous injection of parental spleen cells. Spermine aldehyde was administered intravenously starting 2 days before parental spleen cell injection and continued until the day of lymph node measurement. Increase in popliteal lymph node swelling was scored by difference in weight between test (left) and control (right) lymph node. […] This GVH reaction is a typical manifestation of MHC class II reaction involving allogenic T lymphocytes.

cytosolic ALDH = experiment: NAD-linked cytosolic ALDH assay, L1210/CPA cells; type: biochemical, Murine; conditions: as substrate, L1210/CPA cytosol
Description: as §1, §2

[1] = tested on: NADP-linked cytosolic ALDH; experiment: NADP-linked cytosolic ALDH assay, L1210/CPA cells; type: biochemical, Murine; conditions: SDA as substrate, L1210/CPA cells
Description: as §1
as §2, with “standard. […]” for “standard.”

[2] = intraperitoneally; Israel et al.; cited from earlier work

For `O=CCCNCCCCNCCC=O` [SDA, NN′-Bis-(3-propionaldehyde)-1-4-diaminobutane], the “ALDH activity in the mitochondrial fraction” value (ALDH) was “could not be measured”, the ED (maximum) (C57BL mice; Mus musculus, T-cell, ip, read-out: dose that appeared to attain maximum suppression of cytotoxic T cell generation) was 10 mg/kg and the “generation of cytotoxic T cells” value (C57BL mice; i.p.) was “suppressed the generation of cytotoxic T cells in a dose related manner”. The ED (maximum) ((Lewis x BN) F1 rats; Rattus norvegicus, iv, Figure 4, read-out: dose required to achieve maximum suppression of GVH reaction in vivo) was 5 mg/kg, the minimal effective dose ((Lewis x BN) F1 rats; Rattus norvegicus, intravenously or subcutaneously, read-out: dose effective to suppress graft vs. host reactions) was 5 to 10 mg/kg and the “GVH reaction (popliteal lymph node swelling)” value ((Lewis x BN) F1 rats; intravenous, daily, Figure 4) was “significantly suppressed the GVH reaction”. The Km (cytosolic ALDH; NAD, ± SEM, 3-4 experiments) was 41.6 µM, the “Specific (activity of ALDH)” value (cytosolic ALDH; propionaldehyde 1.0 mM) was 6.8 ± 1.6 mU/mg Protein and the “activity of NADP-linked cytosolic ALDH” value [1] was 3.0-3.5 mU/mg protein. The LD100 [2] was 40 mg/kg.
